# Marks after values point to notes of the source that are not given here. Square brackets hold non-standard residues; d marks the D form. Peptide text beside a SMILES is read from it. dPhe(4-Cl) = N[C@H](Cc1ccc(Cl)cc1)C(=O)O; d2Nal = N[C@H](Cc1ccc2ccccc2c1)C(=O)O; dCit = NC(=O)NCCC[C@@H](N)C(=O)O; d3Pal = N[C@H](Cc1cccnc1)C(=O)O
# Tested on: pubertal Hereford-cross beef heifers
# Assay: Two 1.5 mg Cetrorelix injections at pre-selection, growing or late-static phase in beef heifers (Example 4)
# Type: in vivo, cattle
# Method: The study was conducted on pubertal Hereford-cross beef heifers (n=32) at the U. Sask. Livestock and Forage Centre of Excellence (LFCE). Initial transrectal ultrasonography was performed to confirm the puberty by the presence or absence of a corpus luteum (CL). Animals were also weighed at this time. Animals with a functional CL were administered an intramuscular (im) injection of prostaglandin F2a analog (cloprostenol) to cause CL regression and ovulation. Daily ultrasonography was performed to detect ovulation and to record the number, size and location of follicles and CL in both ovaries. The day of emergence of a follicular wave was initially estimated by sudden increase in the number of 3-4 mm follicles and confirmed retrospectively as the day on which the dominant follicle was first detected at 4 to 5 mm in size (defined as Day 0). Follicular and hormonal data (see next section for endpoints) from all animals was collected for one complete inter-ovulatory interval.
# Animals were randomized into 4 groups based on the day of ovulation. Group 1 (control group) heifers were given 3 mL normal saline (sham-treated negative control; n=3 on Days 1 and 2, n=3 on Days 3 and 4, n=2 on Days 6 and 7). Group 2 heifers were given 1.5 mg Cetrorelix on Days 1 and 2 (pre-selection dominant follicle phase; n=8), Group 3 heifers were given Cetrorelix on Days 3 and 4 (dominant follicle growing phase; n=8), and Group 4 heifers were given Cetrorelix on Days 6 and 7 (dominant follicle late-static/early regressing phase; n=8). The dose of Cetrorelix (1.5 mg per treatment), route of administration (intramuscular) and duration of treatment (i.e., 2 doses at 24 hr interval) were selected based on Example 2 and previous studies in cattle (Ulker et al, 2001).
# Changes in the size of the dominant follicle, largest subordinate follicle and CL, and the number of follicles in 3-5, 6-8, and 9+mm size categories were recorded daily from initial ovulation to the first post-treatment ovulation. The inter-wave interval was determined based on duration between emergence of successive follicular waves.
# Blood samples were also collected every 12 hours by jugular venipuncture for measurement of plasma LH concentrations from −36 hr to +72 hr of treatment. Blood samples were collected daily for measurement of plasma progesterone concentrations from 1 day before to 7 days after treatment. A Proc Mixed repeated measures analysis of variance (SAS version 9.4) was performed to compare serial data (follicle size, follicle numbers, CL size, plasma LH, plasma progesterone).
compound,measurement,setting,value
"CC(=O)N[C@H](Cc1ccc2ccccc2c1)C(=O)N[C@H](Cc1ccc(Cl)cc1)C(=O)N[C@H](Cc1cccnc1)C(=O)N[C@@H](CO)C(=O)N[C@@H](Cc1ccc(O)cc1)C(=O)N[C@H](CCCNC(N)=O)C(=O)N[C@@H](CC(C)C)C(=O)N[C@@H](CCCNC(=N)N)C(=O)N1CCC[C@H]1C(=O)N[C@H](C)C(N)=O [Cetrorelix, N-acetyl-3-(2-naphthyl)-D-alanyl-4-chloro-D-phenylalanyl-3-(3-pyridyl)-D-alanyl-L-seryl-L-tyrosyl-D-citrullyl-L-leucyl-L-arginyl-L-prolyl-D-alaninamide] (Ac-[d2Nal][dPhe(4-Cl)][d3Pal]SY[dCit]LRP[dA]-NH2)",Days from treatment to next wave emergence,1.5 mg i/m on Day 1-2 of wave,5.9 ± 0.4 days
same,Days from treatment to next wave's dominant follicle at 9 mm,1.5 mg i/m on Day 1-2 of wave,9.1 ± 0.8 days
same,Interovulatory Interval,1.5 mg i/m on Day 1-2 of wave,21.5 ± 1.4
same,Interwave Interval,1.5 mg i/m on Day 1-2 of wave,6.9 ± 0.4^b
same,Largest Dominant Follicle Diameter (mm),1.5 mg i/m on Day 1-2 of wave,10.3 ± 0.6^b mm
same,Largest Subordinate Follicle Diameter (mm),1.5 mg i/m on Day 1-2 of wave,7.1 ± 0.5^b mm
same,Number of Follicles at WE,1.5 mg i/m on Day 1-2 of wave,19.3 ± 2.0
same,Time to Largest Dominant (days),1.5 mg i/m on Day 1-2 of wave,6.3 ± 0.9^ab days
same,Time to Largest Subordinate,1.5 mg i/m on Day 1-2 of wave,3.1 ± 0.6 days
same,Length of Wave 2,"1.5 mg i/m on Day 1-2 of wave, in d (unit assumed)",9.3 ± 0.7
same,Days from treatment to next wave emergence,1.5 mg i/m on Day 3-4 of wave,5.8 ± 0.5 days
same,Days from treatment to next wave's dominant follicle at 9 mm,1.5 mg i/m on Day 3-4 of wave,9.5 ± 0.5 days
same,Interovulatory Interval,1.5 mg i/m on Day 3-4 of wave,20.3 ± 0.4
same,Interwave Interval,1.5 mg i/m on Day 3-4 of wave,8.9 ± 0.4^ab
same,Largest Dominant Follicle Diameter (mm),1.5 mg i/m on Day 3-4 of wave,10.6 ± 0.4^b mm
same,Largest Subordinate Follicle Diameter (mm),1.5 mg i/m on Day 3-4 of wave,6.9 ± 0.4^b mm
same,Number of Follicles at WE,1.5 mg i/m on Day 3-4 of wave,20.9 ± 2.7 ^
same,Time to Largest Dominant (days),1.5 mg i/m on Day 3-4 of wave,4.6 ± 0.6^b days
same,Time to Largest Subordinate (days),1.5 mg i/m on Day 3-4 of wave,4.0 ± 1.0^ days
same,Length of Wave 2,"1.5 mg i/m on Day 3-4 of wave, in d (unit assumed)",9.1 ± 0.8
same,Days from treatment to next wave emergence,1.5 mg i/m on Day 6-7 of wave,4.3 ± 0.6 days
same,Days from treatment to next wave's dominant follicle at 9 mm,1.5 mg i/m on Day 6-7 of wave,8.3 ± 0.7 days
same,Interovulatory Interval,1.5 mg i/m on Day 6-7 of wave,19.6 ± 0.6
same,Interwave Interval,1.5 mg i/m on Day 6-7 of wave,10.3 ± 0.6^a
same,Largest Dominant Follicle Diameter (mm),1.5 mg i/m on Day 6-7 of wave,12.9 ± 0.4^a mm
same,Largest Subordinate Follicle Diameter (mm),1.5 mg i/m on Day 6-7 of wave,7.9 ± 0.6^b mm
same,Length of Wave 2,1.5 mg i/m on Day 6-7 of wave,8.3 ± 0.5
same,Number of Follicles at WE,1.5 mg i/m on Day 6-7 of wave,15.8 ± 1.1
same,Time to Largest Dominant (days),1.5 mg i/m on Day 6-7 of wave,6.8 ± 0.9^ab days
same,Time to Largest Subordinate,1.5 mg i/m on Day 6-7 of wave,3.9 ± 0.5 days
same,Wave emergence after the first Cetrorelix treatment irrespective of phase of dominant follicle,"two 1.5 mg (about 3.75 ug/kg) i/m doses 24 hr apart, groups combined",5.3 ± 0.3 days
same,Next wave dominant follicle ready for ovulation,two 1.5 mg i/m doses,9 days
